Experimental data taken from ChEMBL document CHEMBL1201862, “PubChem BioAssay data set” (2004).
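Results reflect a 48-hour exposure of cells in 96-well plates to compound at five concentrations. Here, GI50 denotes the concentration required for 50% inhibition of growth.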 Activity calls are given as the source filed them. No stated cut-off is given here; in the data, active = GI50 up to about 1.1 µM and inactive = higher.

How the values were obtained:
Test in all cases: inhibition of tumour cell growth, NCI panel, 48 h
BT-549 = system: BT-549
COLO 205 = system: COLO 205
DU-145 = system: DU-145
HOP-62 = system: HOP-62
HT-29 = system: HT-29
KM12 = system: KM12
M14 = system: M14
MDA-MB-231 = system: MDA-MB-231
Malme-3M = system: Malme-3M
NCI-H226 = system: NCI-H226
SF-268 = system: SF-268
SF-539 = system: SF-539
SK-OV-3 = system: SK-OV-3
SNB-19 = system: SNB-19
SR = system: SR
TK-10 = system: TK-10
OVCAR-4 = system: OVCAR-4
SK-MEL-5 = system: SK-MEL-5
T47D = system: T47D

Measured: GI50

Nc1nc(N)c2nnn(C[C@H]3CC[C@@H](CO)C3)c2n1
inactive: BT-549 > 100 µM | COLO 205 > 100 µM | DU-145 > 100 µM | HOP-62 > 100 µM | HT-29 > 100 µM | KM12 > 100 µM | M14 > 100 µM | MDA-MB-231 > 100 µM | Malme-3M > 100 µM | NCI-H226 > 100 µM | SF-268 > 100 µM | SF-539 > 100 µM | SK-OV-3 > 100 µM | SNB-19 > 100 µM | SR > 100 µM | TK-10 > 100 µM

Fc1nc(-c2c3ccccc3c3sc4ccccc4n23)nc(N2CCOCCOCCOCCOCC2)n1
inactive: BT-549 87.1 µM | COLO 205 > 100 µM | DU-145 > 100 µM | HOP-62 23.7 µM | HT-29 46.6 µM | KM12 > 100 µM | M14 > 100 µM | MDA-MB-231 86.9 µM | Malme-3M > 100 µM | NCI-H226 > 100 µM | OVCAR-4 > 100 µM | SF-268 > 100 µM | SF-539 21.6 µM | SK-MEL-5 > 100 µM | SK-OV-3 71 µM | SNB-19 35.6 µM | SR 11.2 µM | TK-10 54.2 µM

CC(=O)OC1=C(CC(C)(C)C)C(=O)c2ccccc2C1=O
inactive: COLO 205 23.6 µM | DU-145 46.7 µM | HOP-62 35.2 µM | HT-29 33.7 µM | KM12 32.2 µM | M14 30.4 µM | MDA-MB-231 87.7 µM | NCI-H226 19.8 µM | OVCAR-4 37.8 µM | SF-268 21.6 µM | SF-539 26.5 µM | SK-MEL-5 15.9 µM | SK-OV-3 25.3 µM | SNB-19 42.6 µM | SR 20.5 µM | T47D 44.2 µM | TK-10 68.9 µM

[O-][n+]1c2ccccc2[n+]([O-])c2ccccc21
inactive: COLO 205 15.6 µM | DU-145 45.4 µM | HOP-62 > 100 µM | HT-29 86.3 µM | M14 33.1 µM | MDA-MB-231 44.5 µM | Malme-3M > 100 µM | NCI-H226 > 100 µM | OVCAR-4 > 100 µM | SF-268 > 100 µM | SF-539 > 100 µM | SK-MEL-5 37.5 µM | SNB-19 86.3 µM | SR 13 µM | T47D 35.3 µM | TK-10 > 100 µM

CN(C)CCNC1=CC(=O)c2nc3ccccc3c3ccnc1c23
inactive: BT-549 7.26 µM | COLO 205 2.75 µM | DU-145 8.2 µM | HOP-62 4.79 µM | HT-29 2.58 µM | KM12 3.34 µM | M14 7.6 µM | MDA-MB-231 3.63 µM | Malme-3M 3 µM | NCI-H226 2.04 µM | OVCAR-4 3.57 µM | SF-268 4.53 µM | SF-539 3.98 µM | SK-OV-3 10.1 µM | SNB-19 5.01 µM | SR 2.25 µM | TK-10 8.2 µM

COc1cc(NC(C)=O)ccc1C(=O)N/N=C/c1ccc(Cl)cc1Cl
inactive: BT-549 > 100 µM | COLO 205 > 100 µM | DU-145 26.3 µM | HOP-62 29.6 µM | HT-29 > 100 µM | KM12 33 µM | M14 48.1 µM | Malme-3M 57.1 µM | NCI-H226 77.1 µM | OVCAR-4 23.2 µM | SF-268 32.6 µM | SF-539 87.7 µM | SK-MEL-5 77.3 µM | SK-OV-3 29.7 µM | SNB-19 42.8 µM | SR 18.2 µM | T47D 16.3 µM

CN(C)/C=C/C(=CC=[N+](C)C)/C=C/N(C)C.[O-][Cl+3]([O-])([O-])[O-]
inactive: HOP-62 > 100 µM | HT-29 > 100 µM | KM12 > 100 µM | M14 > 100 µM | Malme-3M > 100 µM | NCI-H226 > 100 µM | OVCAR-4 > 100 µM | SF-268 > 100 µM | SF-539 > 100 µM | SK-MEL-5 > 100 µM | SK-OV-3 16.7 µM | SNB-19 > 100 µM | SR > 100 µM | TK-10 > 100 µM

COC(=O)C(C(=O)Cc1ccccc1[N+](=O)[O-])C(=O)OC
inactive: COLO 205 > 100 µM | HOP-62 > 100 µM | HT-29 > 100 µM | KM12 > 100 µM | M14 > 100 µM | Malme-3M > 100 µM | NCI-H226 > 100 µM | OVCAR-4 > 100 µM | SF-268 > 100 µM | SF-539 > 100 µM | SK-MEL-5 > 100 µM | SK-OV-3 > 100 µM | SNB-19 > 100 µM | SR 23.9 µM | TK-10 > 100 µM

Cc1c(N)c(C#N)c2n(C)c3ncccc3n2c1=O
inactive: COLO 205 > 100 µM | HOP-62 > 100 µM | HT-29 > 100 µM | KM12 > 100 µM | M14 > 100 µM | Malme-3M > 100 µM | NCI-H226 > 100 µM | OVCAR-4 > 100 µM | SF-268 > 100 µM | SF-539 > 100 µM | SK-MEL-5 > 100 µM | SK-OV-3 > 100 µM | SNB-19 > 100 µM | SR > 100 µM | TK-10 > 100 µM

Cc1nc2nn[nH]n2c(=O)c1CCO
inactive: COLO 205 > 100 µM | DU-145 > 100 µM | HOP-62 > 100 µM | HT-29 > 100 µM | KM12 > 100 µM | M14 > 100 µM | MDA-MB-231 > 100 µM | Malme-3M > 100 µM | NCI-H226 > 100 µM | OVCAR-4 > 100 µM | SF-268 > 100 µM | SF-539 > 100 µM | SK-MEL-5 > 100 µM | SK-OV-3 > 100 µM | SNB-19 > 100 µM | SR > 100 µM | T47D > 100 µM | TK-10 > 100 µM

CC(C)C(/C=C/c1ccc(Cl)c(Cl)c1)=N\NC(=O)N/N=C(/C=C/c1ccc(Cl)c(Cl)c1)C(C)C
inactive: BT-549 > 100 µM | COLO 205 > 100 µM | DU-145 > 100 µM | HOP-62 > 100 µM | HT-29 > 100 µM | KM12 > 100 µM | M14 > 100 µM | MDA-MB-231 > 100 µM | Malme-3M > 100 µM | NCI-H226 > 100 µM | OVCAR-4 > 100 µM | SF-268 > 100 µM | SF-539 > 100 µM | SK-MEL-5 > 100 µM | SK-OV-3 > 100 µM | SNB-19 > 100 µM | SR 86.1 µM | TK-10 > 100 µM

Cn1c(=O)oc2cc(Br)ccc21
inactive: COLO 205 > 100 µM | DU-145 > 100 µM | HOP-62 > 100 µM | HT-29 > 100 µM | KM12 > 100 µM | M14 > 100 µM | MDA-MB-231 > 100 µM | Malme-3M > 100 µM | NCI-H226 > 100 µM | OVCAR-4 > 100 µM | SF-268 > 100 µM | SF-539 > 100 µM | SK-MEL-5 > 100 µM | SK-OV-3 > 100 µM | SNB-19 > 100 µM | SR > 100 µM | T47D > 100 µM | TK-10 > 100 µM

COc1nc(SC)nc2c1C(O)n1c(nc3ccccc31)S2 (stereo not given)
inactive: BT-549 28.1 µM | DU-145 53.7 µM | HOP-62 12.1 µM | HT-29 35.9 µM | KM12 25.4 µM | M14 60.4 µM | MDA-MB-231 14.4 µM | Malme-3M 40 µM | OVCAR-4 17.4 µM | SF-268 18.4 µM | SK-OV-3 22.8 µM | SNB-19 25.2 µM | SR 3.58 µM | TK-10 23.7 µM

CC(=O)Nc1c(C(=N)C#N)ncn1CCO
inactive: COLO 205 > 100 µM | DU-145 > 100 µM | HOP-62 > 100 µM | HT-29 > 100 µM | KM12 > 100 µM | M14 > 100 µM | MDA-MB-231 > 100 µM | Malme-3M > 100 µM | NCI-H226 > 100 µM | OVCAR-4 > 100 µM | SF-268 > 100 µM | SF-539 > 100 µM | SK-MEL-5 > 100 µM | SK-OV-3 > 100 µM | SNB-19 > 100 µM | T47D > 100 µM | TK-10 > 100 µM

O=C(CC(O)(C(F)(F)F)C(F)(F)Cl)CC(O)(C(F)(F)F)C(F)(F)Cl (stereo not given)
inactive: COLO 205 1.69 µM | DU-145 1.17 µM | HOP-62 2.09 µM | HT-29 2.33 µM | KM12 3.09 µM | M14 3.65 µM | MDA-MB-231 2.05 µM | Malme-3M 1.14 µM | NCI-H226 2.36 µM | OVCAR-4 1.42 µM | SF-268 2.31 µM | SF-539 1.34 µM | SK-MEL-5 1.72 µM | SK-OV-3 1.4 µM | SNB-19 2.22 µM | SR > 10 µM | T47D 1.49 µM | TK-10 3.08 µM

S=C(Nc1ccc(Cl)cc1)c1ccc(CN2CCCCC2)s1
inactive: BT-549 8.26 µM | COLO 205 2.68 µM | DU-145 19.8 µM | HT-29 3.5 µM | KM12 5.43 µM | M14 4.09 µM | OVCAR-4 12.5 µM | SF-268 36.3 µM | SF-539 24.9 µM | SK-MEL-5 3.08 µM | SR 2.9 µM

Nc1ccc2c(c1)Cc1ccccc1-2
inactive: BT-549 48.2 µM | COLO 205 > 100 µM | HOP-62 60 µM | HT-29 > 100 µM | KM12 41.5 µM | M14 > 100 µM | MDA-MB-231 > 100 µM | Malme-3M > 100 µM | NCI-H226 > 100 µM | OVCAR-4 > 100 µM | SF-539 73.6 µM | SK-MEL-5 66.2 µM | SK-OV-3 > 100 µM | SNB-19 > 100 µM | SR 52.5 µM | TK-10 > 100 µM
